We go through 23 compounds from ChEMBL document CHEMBL2401692, “Synthesis, structure-activity relationships, and in vivo efficacy of the novel potent and selective anaplastic lymphoma kinase (ALK) inhibitor 5-chloro-N2-(2-isopropoxy-5-methyl-4-(piperidin-4-yl)phenyl)-N4-(2-(isopropylsulfonyl)phenyl)pyrimidine-2,4-diamine (LDK378) currently in phase 1 and phase …” (J Med Chem, 2013).

Each structure is given as a SMILES string. Values after ≈ are worked out from the molar mass of the structure shown. A value given as a limit tells only on which side of the number the result lay.

In data set [1] the test system is KARPAS-299. Nature of the data set: cells. The note with it: Homo sapiens.
Data set [2] concerns BaF3. Nature of the data set: cells. The note with it: Mus musculus.
Data set [3] can be described thus: Solubility of the compound […] at pH 6.8. It is filed as physicochemical.
Data set [4] addresses Cytochrome P450 3A4 (Homo sapiens, UniProt P08684). Nature of the data set: Inhibition of CYP3A4 in human liver microsomes using midazolam as substrate by LC-MS/MS analysis. Type of data set: ADME, Microsome. In general terms: Microsomes from liver hold many membrane-bound enzymes, among them those of drug oxidation.
Data set [5] can be described thus: Intrinsic clearance in human liver microsomes. Type of data set: ADME, Microsome. The conditions noted are these: read-out: CLH.
Data set [6] in a line: Intrinsic clearance in mouse liver microsomes. Type of data set: ADME, Microsome. The note with it: read-out: CLH.
A short description of data set [7]: Intrinsic clearance in rat liver microsomes. The note with it: read-out: CLH. Type of data set: ADME, Microsome.
For data set [8], the target named is T1, Voltage-gated inwardly rectifying potassium channel KCNH2 (Homo sapiens, UniProt Q12809).
T1 sequence (Q12809 whole entry): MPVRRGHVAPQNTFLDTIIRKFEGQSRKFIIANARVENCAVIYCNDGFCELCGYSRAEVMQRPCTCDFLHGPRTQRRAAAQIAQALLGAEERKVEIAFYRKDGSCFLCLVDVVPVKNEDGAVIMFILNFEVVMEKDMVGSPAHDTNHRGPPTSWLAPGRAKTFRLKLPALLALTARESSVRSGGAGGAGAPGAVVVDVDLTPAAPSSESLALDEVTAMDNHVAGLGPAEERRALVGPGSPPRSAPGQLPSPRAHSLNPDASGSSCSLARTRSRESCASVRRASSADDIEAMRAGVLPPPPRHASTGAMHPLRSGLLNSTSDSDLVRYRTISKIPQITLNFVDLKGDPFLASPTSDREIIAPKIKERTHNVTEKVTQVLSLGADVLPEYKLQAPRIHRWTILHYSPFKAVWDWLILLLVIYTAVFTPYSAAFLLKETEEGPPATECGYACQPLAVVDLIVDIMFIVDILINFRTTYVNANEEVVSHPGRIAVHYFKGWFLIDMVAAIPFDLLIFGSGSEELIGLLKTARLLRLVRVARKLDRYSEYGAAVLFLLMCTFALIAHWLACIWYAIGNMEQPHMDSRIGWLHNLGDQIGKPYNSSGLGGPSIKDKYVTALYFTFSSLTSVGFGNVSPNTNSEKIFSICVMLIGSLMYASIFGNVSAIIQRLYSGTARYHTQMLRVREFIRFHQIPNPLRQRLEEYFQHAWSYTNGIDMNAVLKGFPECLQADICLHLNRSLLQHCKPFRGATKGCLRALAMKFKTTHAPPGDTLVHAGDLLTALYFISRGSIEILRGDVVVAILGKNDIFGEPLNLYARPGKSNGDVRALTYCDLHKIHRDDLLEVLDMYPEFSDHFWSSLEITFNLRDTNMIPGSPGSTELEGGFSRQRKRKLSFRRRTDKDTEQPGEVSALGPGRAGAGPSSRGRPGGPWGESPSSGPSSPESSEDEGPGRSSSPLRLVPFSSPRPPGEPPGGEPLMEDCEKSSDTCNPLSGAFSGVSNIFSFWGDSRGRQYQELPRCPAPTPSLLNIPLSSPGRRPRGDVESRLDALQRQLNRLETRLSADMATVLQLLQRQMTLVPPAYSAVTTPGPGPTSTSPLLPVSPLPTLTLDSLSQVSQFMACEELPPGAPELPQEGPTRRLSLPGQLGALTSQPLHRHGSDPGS
Description: Inhibition of human ERG by dofetilide binding assay
In data set [9] the target is T1, Voltage-gated inwardly rectifying potassium channel KCNH2. Nature of the data set: Inhibition of human ERG by patch-clamp technique. In general terms: Patch clamp records ionic current or voltage across a cell membrane.
The nature of data set [10]: Oral bioavailability in Sprague-Dawley rat at 10 mg/kg. It is filed as ADME, organism-based. The note with it: in vivo.

Sequence of Cytochrome P450 3A4 (P08684 whole entry): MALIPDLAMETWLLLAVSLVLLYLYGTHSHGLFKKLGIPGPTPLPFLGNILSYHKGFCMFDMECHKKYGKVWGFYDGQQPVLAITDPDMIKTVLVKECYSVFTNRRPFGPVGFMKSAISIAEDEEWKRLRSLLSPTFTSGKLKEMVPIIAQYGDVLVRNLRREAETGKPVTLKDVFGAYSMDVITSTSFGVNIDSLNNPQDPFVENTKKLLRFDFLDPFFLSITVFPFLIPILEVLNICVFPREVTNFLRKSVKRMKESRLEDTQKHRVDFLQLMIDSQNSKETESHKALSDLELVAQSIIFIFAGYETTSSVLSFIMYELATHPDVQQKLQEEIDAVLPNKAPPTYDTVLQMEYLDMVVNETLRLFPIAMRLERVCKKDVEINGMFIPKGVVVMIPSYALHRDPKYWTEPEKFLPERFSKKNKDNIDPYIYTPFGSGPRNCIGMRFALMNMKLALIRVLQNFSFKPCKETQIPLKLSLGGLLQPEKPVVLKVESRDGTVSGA

Broadly, the IC50 is the midpoint of a concentration-inhibition curve. Low readings indicate greater potency, high ones weaker potency. With `CCN1CCC(c2cc(OC(C)C)c(Nc3ncc(C)c(Nc4ccccc4S(=O)(=O)C(C)C)n3)cc2C)CC1`, the IC50 amounted to 10.5 nM in [1] and 4000 nM in data set [2].

Consider `Cc1cc(Nc2ncc(C)c(Nc3ccccc3S(=O)(=O)C(C)C)n2)c(OC(C)C)cc1C1CCN(CCO)CC1`, for which the IC50 in data set [1] was 23.8 nM; in [2], greater than 10000 nM.

Turning to `COCCN1CCC(c2cc(OC(C)C)c(Nc3ncc(C)c(Nc4ccccc4S(=O)(=O)C(C)C)n3)cc2C)CC1`, the IC50 in data set [1] was 22.4 nM; in data set [2], 4410 nM.

As for `Cc1cc(Nc2ncc(Cl)c(Nc3ccccc3S(=O)(=O)C(C)C)n2)c(OC(C)C)cc1C1CCNC(=O)C1` (centres undefined), the IC50 in data set [1] was 38.4 nM; in data set [2] it was greater than 10000 nM.

What is called solubility is how much of the substance goes into solution per volume. The low end stands for little dissolved substance, the high end for much dissolved substance. As for `CC(C)Oc1nc(C2CCNCC2)ncc1Nc1ncc(Cl)c(Nc2ccccc2S(=O)(=O)C(C)C)n1`, in data set [3], the solubility amounted to 138 µM (≈ 75.4 µg/mL). The INH in data set [4] was 9.3 µM. The microsomal CLint in data set [5] came out at 16 µL/min/mg; in [6], 21 µL/min/mg; in [7], 18 µL/min/mg. The IC50 was 400 nM in data set [8], 33.3 nM in data set [1] and 3800 nM in data set [2].

`Cc1cc(Nc2cc(Nc3ccccc3S(=O)(=O)C(C)C)c(Cl)cn2)c(OC(C)C)cc1C1CCN(C)CC1`: the half-inhibitory concentration (IC50) came out at 5510 nM in data set [1] and 5410 nM in [2].

As to `Cc1cc(Nc2ncc(Cl)c(Nc3ccccc3S(=O)(=O)N(C)C)n2)c(OC(C)C)cc1C1CCN(C)CC1`, the IC50 in data set [1] was found to be 14.3 nM; in data set [2], 1190 nM.

`CCN1CCC(c2cc(OC(C)C)c(Nc3ncc(Cl)c(Nc4ccccc4S(=O)(=O)C(C)C)n3)cc2C)CC1`: the half-maximal inhibitory concentration (IC50) in data set [1] worked out at 11.1 nM; in data set [2], 4120 nM.

Consider `Cc1cc(Nc2ncc(Cl)c(Nc3ccccc3S(=O)(=O)C(C)C)n2)c(OC(C)C)cc1C1CCN(C(C)C)CC1`, for which the values for the IC50 in [1] and in [2] were 14.5 nM and 3860 nM, respectively.

In turn, `Cc1cc(Nc2ncc(Cl)c(Nc3ccccc3S(=O)(=O)C(C)C)n2)c(OC(C)C)cc1C1CCN(CCO)CC1` showed a solubility in [3] of 36 µM (≈ 21.7 µg/mL). Besides, the INH in [4] is 2.5 µM. Besides, the microsomal CLint was 15 µL/min/mg in [5], 15 µL/min/mg in [6] and 14 µL/min/mg in [7]. The same compound registered a half-maximal inhibitory concentration (IC50) in [2] of 4340 nM.

Take `COCCN1CCC(c2cc(OC(C)C)c(Nc3ncc(Cl)c(Nc4ccccc4S(=O)(=O)C(C)C)n3)cc2C)CC1`: the half-maximal inhibitory concentration (IC50) stood at 16.1 nM in [1] and 4970 nM in data set [2].

With `Cc1cc(Nc2ncc(Cl)c(Nc3ccccc3S(=O)(=O)C(C)C)n2)c(OC(C)C)cc1C1CCN(C2CCN(C)CC2)CC1`, the figures for the IC50 in data set [1] and in data set [2] were 100 nM and 1420 nM, respectively.

As for `Cc1cc(Nc2ncc(Cl)c(Nc3ccccc3S(=O)(=O)C(C)C)n2)c(OC(C)C)cc1C1CCN(CC(F)F)CC1`, the figures for the concentration for half-maximal inhibition (IC50) in data set [1] and in [2] were 294 nM and greater than 10000 nM, respectively.

Consider `Cc1cc(Nc2ncc(Cl)c(Nc3ccccc3S(=O)(=O)C(C)C)n2)c(OC(C)C)cc1C1CCN(CC(=O)O)CC1`, for which the half-inhibitory concentration (IC50) was 15.3 nM in data set [1] and greater than 10000 nM in [2].

As for `Cc1cc(Nc2ncc(Cl)c(Nc3ccccc3S(=O)(=O)C(C)C)n2)c(OC(C)C)cc1C1CCN(CC(N)=O)CC1`, the values for the half-inhibitory concentration (IC50) in data set [1] and in [2] were 7.9 nM and 7540 nM, respectively.

`Cc1cc(Nc2ncc(Cl)c(Nc3ccccc3S(=O)(=O)C(C)C)n2)c(OC(C)C)cc1C1CCN(C(=O)CN(C)C)CC1`: in [3], the solubility is 4 µM (≈ 2.57 µg/mL). In data set [4], the INH amounted to 0.6 µM. In addition, the results for the microsomal CLint in data set [5], in data set [6] and in data set [7] were 46 µL/min/mg, 45 µL/min/mg and 21 µL/min/mg, respectively. The figures for the IC50 in data set [1] and in data set [2] were 21.7 nM and 2740 nM, respectively.

With `Cc1cc(Nc2ncc(C)c(Nc3ccccc3S(=O)(=O)C(C)C)n2)c(OC(C)C)cc1C1CCN(C)CC1`, the IC50 in data set [9] was 20000 nM; in [8], 1100 nM; in data set [1] it was 15.6 nM; in [2], 4080 nM. The compound further showed a solubility in data set [3] of 144 µM (≈ 79.5 µg/mL). In addition, the INH in data set [4] was found to be 9.8 µM. For the same compound, the microsomal CLint in [5] came out at 8 µL/min/mg; in data set [6], 15 µL/min/mg; in data set [7], 14 µL/min/mg.

For the compound `CC(C)Oc1cc(N2CCC(N3CCN(C)CC3)CC2)ccc1Nc1ncc(Cl)c(Nc2ccccc2S(=O)(=O)C(C)C)n1`, the IC50 worked out at 25.5 nM in data set [1] and 3400 nM in data set [2].

The term bioavailability denotes the share of a dose that reaches the circulation, judged against a reference dose that is usually intravenous. Higher therefore signals much systemic uptake. In data set [10], `CC(C)Oc1cc(C2CCNCC2)ccc1Nc1ncc(Cl)c(Nc2ccccc2S(=O)(=O)C(C)C)n1` gave a bioavailability of 12%. Further, in data set [3], the concentration in solution (solubility) came to 4 µM (≈ 2.18 µg/mL). Also, the INH in data set [4] was found to be 1.4 µM. In addition, the microsomal CLint in data set [5], in data set [6] and in data set [7] was 15 µL/min/mg throughout. In addition, the IC50 stood at 7.8 nM in data set [1] and 3010 nM in data set [2].

Consider `Cc1cc(Nc2ncc(C)c(Nc3ccccc3S(=O)(=O)C(C)C)n2)c(OC(C)C)cc1C1CCNCC1`, for which the IC50 came to 13.1 nM in [1] and 2880 nM in data set [2].

With `Cc1cc(Nc2ncc(Cl)c(Nc3ccccc3S(=O)(=O)C3CCC3)n2)c(OC(C)C)cc1C1CCNCC1`, the IC50 was determined as 13.5 nM in data set [1] and 2460 nM in data set [2].

In turn, `Cc1cc(Nc2ncc(Cl)c(Nc3ccccc3S(=O)(=O)C(C)C)n2)c(OC2CCC2)cc1C1CCNCC1` showed a solubility in data set [3] of less than 2 µM. Besides, in [4], the INH came out at 7.3 µM. Besides, the microsomal CLint in data set [5], in [6] and in data set [7] was 15 µL/min/mg throughout. The IC50 in data set [1] was 13.1 nM; in data set [2], 2520 nM.

In data set [3], `Cc1cc(Nc2ncc(Cl)c(Nc3ccccc3S(=O)(=O)C(C)C)n2)c(OC(C)C)cc1C1CCN(C)CC1` came in with a solubility of 64 µM (≈ 36.6 µg/mL). Moreover, the INH in data set [4] was 2.1 µM. Besides, the values for the microsomal CLint in data set [5], in data set [6] and in data set [7] were 17 µL/min/mg, 15 µL/min/mg and 4 µL/min/mg, respectively. Also, the results for the IC50 in data set [1] and in data set [2] were 11.2 nM and 4000 nM, respectively.
